Data taken from patent publication US4307016A, “Demethyl maytansinoids” (priority 1978, dated 1981).
≈ marks a conversion by molar mass, not a printed value. Read-outs that look alike come from different tables or passages of the source.

How the values were obtained:
[1] = test system: Hamigera avellanea IFO 7721; experiment: Antifungal activity, paper disc method (zone of growth inhibition); assay type: cell-based; conditions: for zone of inhibition at 100 µg/mL: Hamigera avellanea
Experimental: On the other hand, on agar plates [3.5 g disodium hydrogen phosphate, 0.5 g monopotassium phosphate, 5 g of yeast extract (Difco), 10 g glucose, 15 g agar, 1000 ml distilled water, pH 7.0], the antifungal activity of the test compound was assayed against Hamigera avellanea IFO 7721 by the paper disc method. Thus, on the plates inoculated with the above microorganism, the zones of growth inhibition were determined using paper discs immersed with 0.02 ml of a 100 μg/ml solution of demethylmaytansinoid compound (I).

Solubility = conditions: for Solubility in chloroform, ethyl acetate, acetone, ethanol, methanol, pyridine, tetrahydrofuran & dimethylsulfoxide: organic solvents (Table 3); for Solubility in petr. ether, n-hexane & water: n-hexane & water (Table 3); for Solubility in benzene, ether: ether (Table 4); for Solubility in chloroform, ethyl acetate, tetrahydrofuran, acetone, ethanol, methanol: organic solvents (Table 4); for Solubility in pyridine, dimethyl sulfoxide: dimethyl sulfoxide (Table 4)
Tetrahymena pyriformis W = experiment: Antiprotozoan activity, serial dilution method (MIC); assay type: cell-based
Experimental: Then, with Tetrahymena pyriformis W as the test organism and a medium composed of 20 g tryptose-peptone (Difco Co.), 1 g yeast extract, 1 g glucose, 1000 ml distilled water, 10 ml 1 M phosphate buffer (pH 7.0) as the assay medium, the microorganism was incubated at 28° C. for 44 to 48 hours and the growth inhibitory activity of demethylmaytansinoid compound (I) was assayed by the serial dilution method.

[2] = IFO7721, paper disc (8 mm diam.), 0.02 ml of a 100 μg/ml solution, read-out: Antifungal activity, (φ mm), zone of growth inhibition
[3] = IFO7721, read-out: Antifungal activity, (φ mm), zone of growth inhibition, paper disc (8 mm diam.), 0.02 ml of a 100 μg/ml solution
[4] = pH 7, read-out: Antiprotozoan activity, MIC

With `COC1C=CC=C(C)Cc2cc(O)c(Cl)c(c2)N(C)C(=O)CC(OC(=O)Cc2ccccc2)C2(C)OC2C(C)C2CC1(O)NC(=O)O2` (stereo not shown) [20-Demethoxy-20-hydroxymaytansinol 3-phenylacetate] the zone of inhibition at 100 µg/mL [1, 2] was 23 mm and the “Antifungal activity, (φ mm), zone of growth inhibition” value ([1]; paper disc (8 mm diam.), 0.02 ml of a 100 μg/ml solution) was 15 mm.
For `COc1cc2cc(c1Cl)N(C)C(=O)CC(OC(=O)CC(C)C)C1(C)OC1C(C)C1CC(O)(NC(=O)O1)C(OC)C=CC=C(C)C2` (stereo not shown) [Ansamitocin P-4, reference compound], the “Solubility in chloroform, ethyl acetate, acetone, ethanol, methanol, pyridine, tetrahydrofuran & dimethylsulfoxide” value (Solubility) was “Soluble” and the “Solubility in petr. ether, n-hexane & water” value (Solubility) was “Insoluble”.
In the case of `COC1C=CC=C(C)Cc2cc(O)c(Cl)c(c2)N(C)C(=O)CC(OC(C)=O)C2(C)OC2C(C)C2CC1(O)NC(=O)O2` (stereo not shown) [20-Demethoxy-20-hydroxymaytanacine], the zone of inhibition at 100 µg/mL [1, 3] was 10 mm, the MIC (Tetrahymena pyriformis W; [4]) was 10 µg/mL (≈ 16.9 µM) and the “Solubility in benzene, ether” value (Solubility) was “Slightly soluble”. The “Solubility in chloroform, ethyl acetate, tetrahydrofuran, acetone, ethanol, methanol” value (Solubility) was “Soluble” and the “Solubility in pyridine, dimethyl sulfoxide” value (“Solubility in pyridine” below) (Solubility) was “Freely soluble”.
In the case of `CCCCCC(=O)OC1CC(=O)N(C)c2cc(cc(O)c2Cl)CC(C)=CC=CC(OC)C2(O)CC(OC(=O)N2)C(C)C2OC12C` (stereo not shown) [20-Demethoxy-20-hydroxymaytansinol 3-hexanoate], the zone of inhibition at 100 µg/mL [1, 3] was 21 mm.
`COC1C=CC=C(C)Cc2cc(O)c(Cl)c(c2)N(C)C(=O)CC(OC(=O)c2ccccn2)C2(C)OC2C(C)C2CC1(O)NC(=O)O2` (stereo not shown) [20-Demethoxy-20-hydroxymaytansinol 3-picolinate] showed a zone of inhibition at 100 µg/mL [1, 3] of 10 mm and an MIC (Tetrahymena pyriformis W; [4]) of no less than 4 µg/mL.
In the case of `COC1C=CC=C(C)Cc2cc(O)c(Cl)c(c2)N(C)C(=O)CC(OC(=O)C(C)C)C2(C)OC2C(C)C2CC1(O)NC(=O)O2` (stereo not shown) [PDM-3], the zone of inhibition at 100 µg/mL [1, 2] was 21 mm and the MIC (Tetrahymena pyriformis W; serial dilution, 28° C., 44 to 48 hours, pH 7.0, read-out: Antiprotozoan activity, MIC) was 2 µg/mL (≈ 3.22 µM).
With `COC1C=CC=C(C)Cc2cc(O)c(Cl)c(c2)N(C)C(=O)CC(OC(=O)Nc2ccccc2)C2(C)OC2C(C)C2CC1(O)NC(=O)O2` (stereo not shown) [20-Demethoxy-20-hydroxymaytansinol 3-N-phenylcarbamate] the zone of inhibition at 100 µg/mL [1, 3] was less than 8 mm and the MIC (Tetrahymena pyriformis W; [4]) was no less than 8 µg/mL.
With `COC1C=CC=C(C)Cc2cc(O)c(Cl)c(c2)N(C)C(=O)CC(OC(=O)[C@H](C)N(C)C(C)=O)C2(C)OC2C(C)C2CC1(O)NC(=O)O2` (stereo partly shown) [20-Demethoxy-20-hydroxymaytansine (L)] the MIC (Tetrahymena pyriformis W; [4]) was greater than 16 µg/mL.
With `COC1C=CC=C(C)Cc2cc(O)c(Cl)c(c2)N(C)C(=O)CC(OC(=O)C2CCCCC2)C2(C)OC2C(C)C2CC1(O)NC(=O)O2` (stereo not shown) [20-Demethoxy-20-hydroxymaytansinol 3-cyclohexanecarboxylate] the zone of inhibition at 100 µg/mL [1, 3] was 20 mm.
`COC1C=CC=C(C)Cc2cc(O)c(Cl)c(c2)N(C)C(=O)CC(OC(=O)c2ccc(Cl)cc2)C2(C)OC2C(C)C2CC1(O)NC(=O)O2` (stereo not shown) [20-Demethoxy-20-hydroxymaytansinol 3-p-chlorobenzoate] gave a zone of inhibition at 100 µg/mL [1, 3] of 10 mm and an MIC (Tetrahymena pyriformis W; [4]) of 4 µg/mL (≈ 5.8 µM).
For `COC1C=CC=C(C)Cc2cc(O)c(Cl)c(c2)N(C)C(=O)CC(OC(=O)CC(C)C)C2(C)OC2C(C)C2CC1(O)NC(=O)O2` (stereo not shown) [PDM-4, 20-demethoxy-20-hydroxymaytansinol 3-isovalerate], the zone of inhibition at 100 µg/mL [1, 3] was 24 mm, the MIC (Tetrahymena pyriformis W; [4]) was 1 µg/mL (≈ 1.57 µM) and the “Solubility in benzene, ether” value (Solubility) was “Slightly soluble”. For the same compound, the “Solubility in chloroform, ethyl acetate, tetrahydrofuran, acetone, ethanol, methanol” value (Solubility) was “Soluble” and the “Solubility in pyridine” value (Solubility) was “Freely soluble”.
For `CCCC(=O)OC1CC(=O)N(C)c2cc(cc(O)c2Cl)CC(C)=CC=CC(OC)C2(O)CC(OC(=O)N2)C(C)C2OC12C` (stereo not shown) [PDM-3', 20-demethoxy-20-hydroxymaytansinol 3-butyrate], the zone of inhibition at 100 µg/mL [1, 3] was 21 mm and the MIC (Tetrahymena pyriformis W; [4]) was 2 µg/mL (≈ 3.22 µM).
For `COc1cc2cc(c1Cl)N(C)C(=O)CC(OC(=O)C(C)C)C1(C)OC1C(C)C1CC(O)(NC(=O)O1)C(OC)C=CC=C(C)C2` (stereo not shown) [Ansamitocin P-3, reference compound], the “Solubility in chloroform, ethyl acetate, acetone, ethanol, methanol, pyridine, tetrahydrofuran & dimethylsulfoxide” value (Solubility) was “Soluble” and the “Solubility in petr. ether, n-hexane & water” value (Solubility) was “Insoluble”.
For `COC1C=CC=C(C)Cc2cc(O)c(Cl)c(c2)N(C)C(=O)CC(O)C2(C)OC2C(C)C2CC1(O)NC(=O)O2` (stereo not shown) [20-Demethoxy-20-hydroxymaytansinol], the zone of inhibition at 100 µg/mL [1, 3] was less than 8 mm, the MIC (Tetrahymena pyriformis W; [4]) was 40 µg/mL (≈ 72.6 µM) and the “Solubility in benzene, ether” value (Solubility) was “Slightly soluble”. The “Solubility in chloroform, ethyl acetate, tetrahydrofuran, acetone, ethanol, methanol” value (Solubility) was “Soluble” and the “Solubility in pyridine” value (Solubility) was “Freely soluble”.
Compound `COC1C=CC=C(C)Cc2cc(O)cc(c2)N(C)C(=O)CC(OC(=O)C(C)C)C2(C)OC2C(C)C2CC1(O)NC(=O)O2` (stereo not shown) [20-Demethoxy-20-hydroxydechloromaytansinol 3-isobutyrate] has a zone of inhibition at 100 µg/mL [1, 3] of 16 mm.
With `COC1C=CC=C(C)Cc2cc(O)c(Cl)c(c2)N(C)C(=O)CC(OC(=O)[C@H](C)N(C)C(=O)CC(C)C)C2(C)OC2C(C)C2CC1(O)NC(=O)O2` (stereo partly shown) [20-Demethoxy-20-hydroxymaytanvaline (L)] the zone of inhibition at 100 µg/mL [1, 3] was 24 mm and the MIC (Tetrahymena pyriformis W; [4]) was 2 µg/mL (≈ 2.78 µM).
Work on `CCC(=O)N(C)[C@@H](C)C(=O)OC1CC(=O)N(C)c2cc(cc(O)c2Cl)CC(C)=CC=CC(OC)C2(O)CC(OC(=O)N2)C(C)C2OC12C` (stereo partly shown) [20-Demethoxy-20-hydroxymaytanprine (L)] yielded a zone of inhibition at 100 µg/mL [1, 3] of 23 mm.
`COC1C=CC=C(C)Cc2cc(O)c(Cl)c(c2)N(C)C(=O)CC(OC(=O)[C@H](C)N(C)C(=O)C(C)C)C2(C)OC2C(C)C2CC1(O)NC(=O)O2` (stereo partly shown) [20-Demethoxy-20-hydroxymaytanbutine (L)] gave a zone of inhibition at 100 µg/mL [1, 3] of 24 mm.
For `CCC(=O)OC1CC(=O)N(C)c2cc(cc(O)c2Cl)CC(C)=CC=CC(OC)C2(O)CC(OC(=O)N2)C(C)C2OC12C` (stereo not shown) [20-Demethoxy-20-hydroxymaytansinol propionate], the zone of inhibition at 100 µg/mL [1, 3] was 15 mm, the “Solubility in benzene, ether” value (Solubility) was “Slightly soluble” and the “Solubility in chloroform, ethyl acetate, tetrahydrofuran, acetone, ethanol, methanol” value (Solubility) was “Soluble”. For the same compound, the “Solubility in pyridine” value (Solubility) was “Freely soluble”.
